# Marks after values point to notes of the source that are not given here.
# Tests used:
# [1] = test system: U87-MG Human Glioblastoma; experiment: Human tumor xenograft test, U87-MG glioblastoma; format: in vivo, athymic mice; conditions: for T/C on day 0 / T/C on day 3 / T/C on day 7 / T/C on day 10: schedule day 1, U87-MG
# [2] = test system: DLD1 Human Colon Carcinoma; experiment: Human tumor xenograft test, DLD1 colon carcinoma; format: in vivo, athymic mice; conditions: for T/C on day 0 / T/C on day 7 / T/C on day 14: schedule days 1, 7, DLD1
# [3] = test system: polymerized tubulin (microtubules); experiment: Competitive binding test, [3H]paclitaxel; set-up: species or system bovine; conditions: competitor 20 μM (5 μM for unlabeled paclitaxel)
# Experimental: (§1) Medium is RPMI-1640 with L-glutamine, supplemented with 10% heat-inactivated fetal calf serum, 100 units/mL penicillin, and 100 μg/mL streptomycin (Gibco, Grand Island, N.Y.). Microtubule-associated protein (MAP)-rich tubulin, containing about 70% tubulin and 30% MAPs (#ML113), and highly purified tubulin (>99% pure, #TL238), both from bovine brain, are obtained from Cytoskeleton, Inc., Denver, Colo. PEM buffer (80 mM piperazine-N,N′-bis[2-ethanesulfonic acid], pH 6.9, 1 mM ethylene glycol-bis(β-aminoethyl ether)-N,N,N′,N′-tetraacetic acid, 1 mM magnesium chloride) and guanosine 5′-triphosphate (GTP) are also obtained from Cytoskeleton. […] [^3H]vinblastine, specific activity 9.60 Ci/mmol and MicroSpin G-50 columns are obtained from Amersham Biosciences (Piscataway, N.J.). […] Other reagents are obtained from Sigma (St. Louis, Mo.).
# (§2) The binding of examples of this invention to highly purified tubulin is studied by competitive inhibition methods.
# The reactions are then centrifuged at top speed in an Eppendorf 5415C microfuge for 20 min at room temperature in order to pellet the microtubule protein. Triplicate aliquots of each supernatant are mixed with scintillation fluid and counted in a liquid scintillation spectrometer. […] The ability of each competitor to inhibit radioligand binding to pelleted protein is expressed as a percent of controls without any competitor.
# [4] = test system: highly purified tubulin (tubulin heterodimer); experiment: Competitive binding test, [3H]colchicine; set-up: species or system bovine; conditions: competitor 100 μM, [3H]colchicine 50 nM, percent of binding to control without competitor
# Experimental: as §1, §2
# These solutions are incubated at 24° for 1 hr and then applied to MicroSpin G-50 columns which are centrifuged for 2 min at 3000 rpm in an Eppendorf 5415C microfuge. An aliquot of each column effluent (containing tubulin and bound radioligand) is mixed with scintillation fluid and counted in a liquid scintillation spectrometer. […] Quadruplicates are averaged, and the ability of the competitor to inhibit the binding of the radioligand is expressed as a percentage of control binding in the absence of any competitor.
# [5] = U87-MG glioblastoma, intravenously on day 1 with 5 mg/kg
smiles,measurement,setting,value
"CNCCCOc1cc(F)c(-c2c(Cl)nc(-c3cnccn3)nc2N[C@@H](C)C(F)(F)F)c(F)c1.Cl [Example 24a, 6-Chloro-5-{2,6-difluoro-4-[3-(methylamino)propoxy]phenyl}-2-pyrazin-2-yl-N-[(1S)-2,2,2-trifluoro-1-methylethyl]pyrimidin-4-amine hygrogen chloride]",T/C on day 0,[1]; 1 mg/kg IV,1.03
same,T/C on day 3,[1]; 1 mg/kg IV,0.71*
same,T/C on day 7,[1]; 1 mg/kg IV,0.75
same,T/C on day 10,[1]; 1 mg/kg IV,0.86
same,T/C on day 0,[1]; 5 mg/kg IV,1.04
same,T/C on day 3,[1]; 5 mg/kg IV,0.41**
same,T/C on day 7,[1]; 5 mg/kg IV,0.21**
same,T/C on day 10,[1]; 5 mg/kg IV,0.17**
same,T/C on day 0,[1]; 10 mg/kg IV,1.04
same,T/C on day 3,[1]; 10 mg/kg IV,0.31**
same,T/C on day 7,[1]; 10 mg/kg IV,Toxic
same,compound toxicity,[1]; [5],some compound toxicity is also observed
same,growth of xenografts,[1]; [5],inhibits the growth
same,T/C on day 0,[2]; 5 mg/kg IV,1.0
same,T/C on day 7,[2]; 5 mg/kg IV,0.24**
same,T/C on day 14,[2]; 5 mg/kg IV,Toxic
same,T/C on day 0,[2]; 5 mg/kg PO,1.0
same,T/C on day 7,[2]; 5 mg/kg PO,1.07
same,T/C on day 14,[2]; 5 mg/kg PO,0.85
same,T/C on day 0,[2]; 10 mg/kg IV,1.0
same,T/C on day 7,[2]; 10 mg/kg IV,Toxic
same,T/C on day 0,[2]; 10 mg/kg PO,1.0
same,T/C on day 7,[2]; 10 mg/kg PO,0.82
same,T/C on day 14,[2]; 10 mg/kg PO,0.28**
same,growth of tumor,"[2]; DLD1 colon carcinoma, orally on days 1 and 7 at 10 mg/kg/dose",inhibits the growth
"CNCCCOc1cc(F)c(-c2c(Cl)nc(-c3ccccn3)nc2N[C@@H](C)C(F)(F)F)c(F)c1.Cl [Example 29a, 6-Chloro-5-{2,6-difluoro-4-[3-(methylamino)propoxy]phenyl}-2-pyridin-2-yl-N-[(S)-2,2,2-trifluoro-1-methylethyl]pyrimidin-4-amine hydrogen chloride]",T/C on day 0,[2]; 1 mg/kg IV,1.0
same,T/C on day 7,[2]; 1 mg/kg IV,0.63*
same,T/C on day 14,[2]; 1 mg/kg IV,0.71*
same,T/C on day 0,[2]; 1 mg/kg PO,1.0
same,T/C on day 7,[2]; 1 mg/kg PO,1.40
same,T/C on day 14,[2]; 1 mg/kg PO,1.02
same,T/C on day 0,[2]; 5 mg/kg IV,1.0
same,T/C on day 7,[2]; 5 mg/kg IV,0.22**
same,T/C on day 14,[2]; 5 mg/kg IV,Toxic
same,T/C on day 0,[2]; 5 mg/kg PO,1.0
same,T/C on day 7,[2]; 5 mg/kg PO,0.79
same,T/C on day 14,[2]; 5 mg/kg PO,0.59*
"CC(=O)O[C@H]1C(=O)[C@@]2(C)[C@H]([C@H](OC(=O)c3ccccc3)[C@]3(O)C[C@H](OC(=O)[C@H](O)[C@@H](NC(=O)c4ccccc4)c4ccccc4)C(C)=C1C3(C)C)[C@]1(OC(C)=O)CO[C@@H]1C[C@@H]2O [Paclitaxel, reference compound]","[3H]Paclitaxel binding, Mean",[3],35 % of control
same,"[3H]Colchicine binding, Mean",[4],93 % of control
"CC[C@]1(O)C[C@H]2CN(CCc3c([nH]c4ccccc34)[C@@](C(=O)OC)(c3cc4c(cc3OC)N(C=O)[C@H]3[C@@](O)(C(=O)OC)[C@H](OC(C)=O)[C@]5(CC)C=CCN6CC[C@]43[C@@H]65)C2)C1 [Vincristine, reference compound]","[3H]Colchicine binding, Mean",[4],99 % of control

# Source: patent publication US7524849B2, “5-arylpyrimidines as anticancer agents” (Wyeth Holdings Corporation, priority 2003, dated 2009)
